Publication PMC5624897, “Identification of isoliquiritigenin as an activator that stimulates the enzymatic production of glycyrrhetinic acid monoglucuronide” (Scientific Reports, 2017)

Tested on: T1, β-glucuronidase from P. purpurogenum Li-3 (PGUS)
T1 construct: native enzyme from mycelia of the fungus grown on GL; crude extract for kinetics, or ammonium sulfate and DEAE-cellulose
Experiment: HPLC of GAMG formed; double reciprocal plot
Type: biochemical, Talaromyces purpureogenus
Conditions: control without ISL; crude β-glucuronidase solution, 2 h, 40 °C, sodium acetate buffer pH 5.0
Text: HPLC of GAMG formed; double reciprocal plot on β-glucuronidase from P. purpurogenum Li-3 (PGUS)

K m: 410 µM
SMILES: CC1(C)[C@@H](O[C@H]2O[C@H](C(=O)O)[C@@H](O)[C@H](O)[C@H]2O[C@@H]2O[C@H](C(=O)O)[C@@H](O)[C@H](O)[C@H]2O)CC[C@]2(C)[C@H]3C(=O)C=C4[C@@H]5C[C@@](C)(C(=O)O)CC[C@]5(C)CC[C@@]4(C)[C@]3(C)CC[C@@H]12 [GL, glycyrrhizin]
